Results reported in patent publication US20160168140A1, “HETEROCYCLIC COMPOUNDS AS ANTIBIOTIC POTENTIATORS” (priority 2014, published 2016).

What follows are compounds tested on Acinetobacter baumannii (Ab23) (assay: MIC shift assay of antibiotics (broth microdilution)). Details: compound concentration 2 μM; fold shift of colistin MIC; nc = no changeover or no shift.
Type: cell-based
Method: Minimum inhibitory concentration (MIC) shift assays were performed to determine if the test compounds could alter the MIC of existing antibacterial drugs (e.g., ciprofloxacin and colistin) for E. coli, Acinetobacter baumannii, Klebsiella pneumoniae, Pseudomonas aeruginosa, and Enterobacter cloacae. The MIC shift assay is based on the standard broth microdilution MIC determination protocol of Wiegand et al, Nat Protoc. 3(2):163-75 (2008), with slight modifications that allow for the screening of up to seven test compounds in a single plate.
On the day before an assay, bacteria were grown overnight in cation-adjusted Mueller Hinton broth (CAMHB; Teknova, Hollister, Calif.) at 37° C. in an orbital shaker and sub-cultured at a 1:200 dilution the following morning. The cells were grown to OD600=0.5 to 0.8 and then diluted to OD600=0.01. From a serial dilution of each antibiotic at (50 μL of 2× concentrated stock solutions) several concentrations were added to the wells of a sterile, transparent round-bottom 96-well plate (Phenix Research Products, Candler, N.C.), and diluted cells (50 μL) were added to the plates for a starting OD600 of 0.005. […] A row of wells lacking test compound but containing the antibiotic was used to determine the MIC of that antibiotic alone. A column of wells lacking both antibiotic and test compound served as a growth control, and an additional column containing only CAMHB was included as a sterile blank control.
The plates were incubated for 18 to 20 h at 37° C. in an orbital shaker, and the cell density (OD600) was determined the following day in a microplate reader (PolarStar Optima, BMG Labtech). The MIC shift was determined by comparing the MIC of the antibiotic alone to the MIC of the antibiotic plus test compound.

SMILES	colistin MIC shift, Ab23 at (compd concentration) [x]
O=C(Nc1ccc(Cl)c(Cl)c1)c1c[nH]c2ccc(Br)cc12 [compound 420]	16
O=C(Nc1ccc(Cl)c(Cl)c1)c1c[nH]c2cc(Br)ccc12 [compound 424]	4
FC(F)(F)c1cccc(-c2c[nH]c3ccc(Cl)cc23)c1 [compound 430]	16

Same assay, conditions: compound concentration 4 μM; fold shift of colistin MIC; nc = no changeover or no shift

SMILES	colistin MIC shift, Ab23 at (compd concentration)
Fc1ccc2c(/C=C/c3cc(Cl)ccc3Cl)c[nH]c2c1 [compound 384]	8-16x
Fc1ccc2c(/C=C/c3ccc(F)c(C(F)(F)F)c3)c[nH]c2c1 [compound 385]	8-16 x
Fc1ccc2c(/C=C/c3cc(C(F)(F)F)cc(C(F)(F)F)c3)c[nH]c2c1 [compound 386]	16x
Fc1ccc2c(/C=C/c3ccc(C(F)(F)F)cc3)c[nH]c2c1 [compound 387]	16x
Fc1ccc2c(/C=C/c3cc(Cl)cc(Cl)c3)c[nH]c2c1 [compound 388]	16x
Fc1ccc2c(/C=C/c3cc(Br)cc(Br)c3)c[nH]c2c1 [compound 389]	16x
FC(F)(F)c1ccc2c(-c3ccc(Cl)c(Cl)c3)n[nH]c2c1 [compound 390, 3-(3,4-dichlorophenyl)-6-(trifluoromethyl)-1H-indazole]	16x
FC(F)(F)c1ccc2c(-c3ccc(Cl)c(Cl)c3)nn(Cc3ccc(Cl)cc3)c2c1 [compound 391, 1-(4-chlorobenzyl)-3-(3,4-dichlorophenyl)-6-(trifluoromethyl)-1H-indazole]	16x
O=C(c1ccc(Cl)c(Cl)c1)n1nc(-c2ccc(Cl)c(Cl)c2)c2ccc(C(F)(F)F)cc21 [compound 392, (3,4-dichlorophenyl)(3-(3,4-dichlorophenyl)-6-(trifluoromethyl)-1H-indazol-1-yl)methanone]	16x
Fc1ccc2c(/C=C/c3ccc(C(F)(F)F)c(Cl)c3)c[nH]c2c1 [compound 393]	16x
Fc1ccc2c(/C=C/c3ccc(OC(F)(F)F)cc3)c[nH]c2c1 [compound 394]	8x
Clc1ccc2[nH]cc(-c3ccc(Cl)c(Cl)c3)c2c1 [compound 395, 5-Chloro-3-(3,4-dichlorophenyl)-1H-indole]	8x
Fc1ccc2c(/C=C/c3cccc(C(F)(F)F)c3)c[nH]c2c1 [compound 396]	8x
Fc1ccc2c(/C=C/c3cc(Cl)c(Cl)c(Cl)c3)c[nH]c2c1 [compound 397]	8x
FC(F)(F)c1cccc(-c2ccc3[nH]ccc3c2)c1 [compound 398, 5-(3-(trifluoromethyl)phenyl)-1H-indole]	4x
Clc1ccc(CCc2c[nH]c3ccc(Br)cc23)cc1Cl [compound 411]	8x
Clc1ccc(NCc2c[nH]c3ccc(Br)cc23)cc1Cl [compound 418]	16 x

Same assay, conditions: compound concentration 8 μM; fold shift of colistin MIC; nc = no changeover or no shift

SMILES	colistin MIC shift, Ab23 at (compd concentration) [x]
O=C(Nc1cccc(C(F)(F)F)c1)c1c[nH]c2ccc(Br)cc12 [compound 428]	4

Same assay, conditions: compound concentration 10 μM; fold shift of colistin MIC; nc = no changeover or no shift

SMILES	colistin MIC shift, Ab23 at (compd concentration) [x]
Fc1cccc(/C=C/c2c[nH]c3cc(F)ccc23)c1 [compound 399]	8
O=C(O)Cn1cc(/C=C/c2ccc(Cl)c(Cl)c2)c2ccc(F)cc21 [compound 416]	4
O=C(O)CCn1cc(/C=C/c2ccc(Cl)c(Cl)c2)c2ccc(F)cc21 [compound 417]	8
